The subject of assay [1] is HMLER CD24− cells. Put plainly: Cell viability assay (CellTiter-Blue), IC50 assessment. Type of assay: cell-based, Human. The settings on record: for IC50: Homo sapiens, read-out: IC50 CD24−. The protocol: (§1) FIG. 1 represents viability of HMLER CD24− cells (full line) and HMLER CD24+ cells (dotted line) at different concentration of salinomycine (1A), AM5 […] or AM13 (1D).
(§2) Cell viability assay was carried out by plating 1000 cells per well in 96-well plates. NAC (2 mM, A9165 Sigma) or DFO (1 mM) were pretreated 2 hours prior to the compound treatment. CellTiter-Blue® Reagent (Promega; G3582) (20 μl/well) was added after 24, 48, or 72 hours treatment and cells were incubated for 1 hour before recording fluorescence (560(20)Ex/590(10)Em) using a Perkin Elmer Wallac 1420 Victor2 Microplate Reader.

For another assay, the system named is HMLER CD24+ cells. The assay is described as above. Type of assay: cell-based. The note with it: Homo sapiens, read-out: IC50 CD24+. The method, then: as §1, §2
The test system of another assay is BT20. Put plainly: Cell death IC50, Annexin V-FITC/PI flow cytometry. Type of assay: cell-based. The settings on record: Homo sapiens, read-out: IC50 BT20. The method, then:
(§3) The cells were seeded in a 6-well plate at density 5.105 cells/well and cultured overnight. The cells were then treated with various concentration (15, 30, 100, 500, 1000 and 10.000 nM) of salinomycine, AM5 and AM23 for 72 h, 96 h and 108 h. After treatment, cell death was quantified using Annexin V-FITC/Propidium Iodide (PI) assay according to the manufacturer's protocol (FITC Annexin V Apoptosis Detection Kit II, 556570, BD Pharmingen™) and analyzed by a LSRFortessa™ flow cytometer (BD Bioscience, San Jose, Calif.). The data were processed using Cell Quest software (BD Biosciences). Dose-response cell death curves were determined for indicated time.
(§4) For tumor cells, the cells are classified in function of their sensitivity of drugs. Here, the most sensitive cells are incubated for 72 h, the middle sensitive cells for 96 h and the less sensitive or resistant cells are incubated for 108 h with drug at several concentrations.
(§5) Concentrations of 30 nM, 500 nm and 1 μM were used for determining the IC50 of drugs.
(§6) Intervals][…]] mean that IC50 is included in this interval with exclusion of the valor 30 nM.

The next assay has as its system BT474. Put plainly: Cell death IC50, Annexin V-FITC/PI flow cytometry. The format is cell-based. The settings on record: Homo sapiens, read-out: IC50 BT474. The method, then: as §3, §4, §5, §6
A further assay has as its system BT549. Description: Cell death IC50, Annexin V-FITC/PI flow cytometry. The format is cell-based. The settings on record: Homo sapiens, read-out: IC50 BT549. The method, then: as §3, §4, §5, §6
In another assay the test system is HBL100. Description: Cell death IC50, Annexin V-FITC/PI flow cytometry. Type of assay: cell-based. The note with it: Homo sapiens. The protocol:
as §3, §4, §5, §6

The test system of another assay is HMLE W2. Description: Cell death IC50, Annexin V-FITC/PI flow cytometry. The format is cell-based. The note with it: Homo sapiens, read-out: IC50 HMLE W2. The method, then:
as §3, §4, §5, §6

Another assay has as its system HMLER CD24low. Description: Cell death IC50, Annexin V-FITC/PI flow cytometry. The format is cell-based. The settings on record: Homo sapiens, read-out: IC50 HMLER CD24low. The method, then:
as §3, §4, §5, §6

The test system of the next assay is HMLER GFP. Put plainly: Cell death IC50, Annexin V-FITC/PI flow cytometry. Type of assay: cell-based. The settings on record: Homo sapiens; 1rst sensibility (72 h). The protocol: as §3, §4, §5, §6
The next assay has as its system HMLER ID2. Description: Cell death IC50, Annexin V-FITC/PI flow cytometry. The note with it: Homo sapiens, read-out: IC50 HMLER ID2. Type of assay: cell-based. The method, then:
as §3, §4, §5, §6

A further assay deals with HMLER shECAD. Description: Cell death IC50, Annexin V-FITC/PI flow cytometry. The format is cell-based. The settings on record: Homo sapiens, read-out: IC50 HMLER shECAD. The method, then:
as §3, §4, §5, §6

In another assay the test system is MCF-7. Put plainly: Cell death IC50, Annexin V-FITC/PI flow cytometry. Type of assay: cell-based. The settings on record: Homo sapiens, read-out: IC50 MCF-7. The protocol:
as §3, §4, §5, §6

In another assay the test system is MDA-MB-134. Put plainly: Cell death IC50, Annexin V-FITC/PI flow cytometry. The settings on record: Homo sapiens, read-out: IC50 MDA-MB-134. Type of assay: cell-based. The protocol: as §3, §4, §5, §6
For another assay, the system named is MDA-MB-231. Put plainly: Cell death IC50, Annexin V-FITC/PI flow cytometry. Type of assay: cell-based. The settings on record: Homo sapiens, read-out: IC50 MDA-MB-231. The protocol: as §3, §4, §5, §6
The next assay deals with MDA-MB-361. Description: Cell death IC50, Annexin V-FITC/PI flow cytometry. The format is cell-based. The note with it: Homo sapiens, read-out: IC50 MDA-MB-361. The method, then: as §3, §4, §5, §6
In a further assay the test system is MDA-MD-157. Put plainly: Cell death IC50, Annexin V-FITC/PI flow cytometry. Type of assay: cell-based. The settings on record: Homo sapiens, read-out: IC50 MDA-MD-157. The protocol: as §3, §4, §5, §6
Another assay deals with T47D. Put plainly: Cell death IC50, Annexin V-FITC/PI flow cytometry. The format is cell-based. The settings on record: Homo sapiens, Resistant (108 h). The protocol: as §3, §4, §5, §6
The test system of another assay is Zr75.1. Description: Cell death IC50, Annexin V-FITC/PI flow cytometry. The format is cell-based. The note with it: Homo sapiens, read-out: IC50 Zr75.1. The protocol: as §3, §4, §5, §6
The test system of assay [2] is HMLER CD24− cells. Description: Cell proliferation and formation of mammospheres. Type of assay: cell-based, Human. The source says: FIG. 2 is a representative phase contrast photomicrographs of mammospheres formed after 11 days in the absence of any added compound (Control) or in the presence of a defined amount of salinomycine, AM5, AM9 or AM13. […] The size of the mammospheres is correlated with progenitor cell proliferation, whereas the number of mammospheres formed after serial passages at clonal density is correlated with the self-renewal capacity of primitive Cancer Stem Cells. […]
FIG. 9 represents images of the third generation of mammospheres formed from individual HMLER CD24low cells treated during 7 days with the indicated drug. The size of the mammospheres is correlated with progenitor cell proliferation capacity, whereas the number of mammospheres formed after serial passages at clonal density is correlated with the self-renewal capacity of primitive Cancer Stem Cells.
AM5, AM9, AM13 and salinomycine were assessed for their capability to inhibit cell proliferation and formation of mammospheres. […]
AM5 and AM23 and salinomycine were assessed for their capability to inhibit cell proliferation and formation of mammospheres.

In another assay the test system is MDA-MB-231 cells. Description: Dead cells by DIOC6(3)/DAPI test with cathepsine B inhibitor. The format is cell-based, Human. The note with it: 500 nM; COA74-Me 30 μM; 48 h, 96 h, 108 h. The method, then: From the treatment, dead cells were assessed by DIOC6(3)/DAPI test and analyzed by flow cytometry.
The mark [3] stands for this setting: third generation of mammospheres, HMLER CD24low cells treated 7 days.

This is an account of results in patent US10287298B2, “Nitrogen-containing analogs of salinomycin, synthesis and use against cancer stem cells and malaria” (Centre National de la Recherche Scientifique (CNRS), priority 2014, dated 2019).

Molecules are shown by their SMILES. Read-outs that look alike come from different tables or passages of the source.

For `C#CCN[C@@H]1C=C[C@]2(O[C@H]([C@@H](CC)C(=O)[C@@H](C)[C@@H](O)[C@H](C)C3O[C@@H](C(CC)C(=O)O)CC[C@@H]3C)[C@@H](C)C[C@H]2C)O[C@@]12CC[C@@](C)([C@H]1CC[C@](O)(CC)[C@H](C)O1)O2` (some centres unmarked) [AM5, Sal-Propargylamine], the IC50 in the assay with HMLER CD24− cells [1] (HMLER CD24− cells, cell viability) is 0.0849 µM; in the assay with HMLER CD24+ cells (HMLER CD24+ cells, cell viability), 3.51 µM; in the assay with BT20 (BT-20, 3rd sensibility (108 h)), 0.03 to 0.5 µM; in the assay with BT474 (BT-474, 2nd sensibility (96 h)), > 1 µM; in the assay on BT549 (BT-549, Resistant (108 h)), > 1 µM; in the assay on HBL100 (HBL-100, No tumoral, read-out: IC50 HBL100) it was > 1 µM. The IC50 with HMLE W2 (Immortalized) was > 1 µM; in the assay with HMLER CD24low (1rst sensibility (72 h)), < 0.03 µM; in the assay with HMLER GFP, 1 µM; with HMLER ID2 (1rst sensibility (72 h)), > 1 µM; in the assay with HMLER shECAD (1rst sensibility (72 h)), 0.03 to 0.5 µM; in the assay with MCF-7 (MCF7, 1rst sensibility (72 h), ]30-500] excludes 30 nM) it was 0.03 to 0.5 µM. Moreover, the 50% inhibitory concentration (IC50) in the assay with MDA-MB-134 (2nd sensibility (96 h)) is 0.03 to 0.5 µM; in the assay with MDA-MB-231 (MDA-MB-231, 2nd sensibility (96 h)), > 1 µM; in the assay with MDA-MB-361 (MDA-MB-361, 2nd sensibility (96 h)), 0.5 µM; in the assay on MDA-MD-157 (2nd sensibility (96 h)), 0.5 µM; in the assay on T47D, > 1 µM; with Zr75.1 (ZR-75-1, 1rst sensibility (72 h), ]30-500] excludes 30 nM), 0.03 to 0.5 µM. Moreover, in the assay on HMLER CD24− cells [1] (comparison of the IC50 results), the “activity against CD24 cells compared with salinomycine” value is listed as “significantly improved activity”. Besides, the “inhibition of cell proliferation, efficacy in comparison with salinomycine” value with HMLER CD24− cells [2] (at 30 nM) is “ten-fold improved efficacy”. Besides, the “number and size of mammosphere” value with HMLER CD24− cells [2] (mammospheres after 11 days, low nanomolar concentrations) was “reduced the number and the size of mammosphere”. Further, the number of mammospheres result in the assay on HMLER CD24− cells [2] (setting [3]) is reported as “reduced the number of mammospheres”. Further, the size of mammospheres result in the assay with HMLER CD24− cells [2] (setting [3]) is “do not alter the tumor diameters”. In addition, the “death of MDA-MB-231 cells in combination with cathepsine B inhibition” value with MDA-MB-231 cells is reported as “combine themselves to induce the death”.
Take `CCC(C(=O)O)[C@H]1CC[C@H](C)C([C@@H](C)[C@H](O)[C@H](C)C(=O)[C@H](CC)[C@H]2O[C@]3(C=C[C@@H](O)[C@]4(CC[C@@](C)([C@H]5CC[C@](O)(CC)[C@H](C)O5)O4)O3)[C@H](C)C[C@@H]2C)O1` (some centres unmarked) [Salinomycine, Salinomycin]: the IC50 in the assay with HMLER CD24− cells [1] was 1.56 µM; in the assay with HMLER CD24+ cells it was 11 µM; with BT20 (BT-20, 108 h), 0.5 µM; in the assay with BT474 (BT-474, 96 h), > 1 µM; in the assay with BT549 (BT-549, 108 h), > 1 µM; in the assay with HBL100 (HBL-100, read-out: IC50 HBL100) it was > 1 µM. The IC50 in the assay with HMLE W2 is > 1 µM; in the assay with HMLER CD24low (72 h) it was 0.03 to 0.5 µM; in the assay with HMLER GFP, 1 µM; with HMLER ID2 (72 h) it was > 1 µM; in the assay with HMLER shECAD (72 h), 0.03 to 0.5 µM; in the assay with MCF-7 (MCF7, 72 h), 0.03 to 0.5 µM. In addition, the IC50 was 0.03 to 0.5 µM with MDA-MB-134 (96 h); > 1 µM with MDA-MB-231 (MDA-MB-231, 96 h); 0.5 µM with MDA-MB-361 (MDA-MB-361, 96 h); 1 µM in the assay on MDA-MD-157 (96 h); > 1 µM with T47D; 0.5 µM in the assay on Zr75.1 (ZR-75-1, 72 h). In the assay with HMLER CD24− cells [2] (setting [3]), the size of mammospheres result was “do not alter the tumor diameters”. Moreover, the “death of MDA-MB-231 cells in combination with cathepsine B inhibition” value with MDA-MB-231 cells is “combine themselves to induce the death”.
